# According to patent US9845330B2, “6-nitro-2,3-dihydroimidazo[2,1-b]oxazoles and a process for the preparation thereof” (priority 2013, dated 2017):
# Tests used:
# [1] = system: M. tuberculosis MDR (resistant to isoniazid and rifampicin); test: microbe, parasite or virus in culture; assay type: cell-based; details: Mycobacterium tuberculosis, 504 h, read-out: MIC M. tb MDR
# [2] = system: M. tuberculosis XDR (resistant to isoniazid, rifampicin, amikacin and moxifloxacin); test: microbe, parasite or virus in culture; assay type: cell-based; details: Mycobacterium tuberculosis, 504 h, read-out: MIC M. tb XDR
smiles,measurement,setting,value
CC(C)c1ccc(OCc2cn(-c3cccc(OC[C@@]4(C)Cn5cc([N+](=O)[O-])nc5O4)c3)nn2)cc1 [IA38],MIC,[1],4 µg/mL
same,MIC,[2],4 µg/mL
C[C@]1(COc2ccccc2-n2cc(COc3ccc(OC(F)(F)F)cc3)nn2)Cn2cc([N+](=O)[O-])nc2O1 [IA39],MIC,[1],1 µg/mL
same,MIC,[2],1 µg/mL
C[C@]1(COc2ccccc2-n2cc(COc3ccc(F)cc3)nn2)Cn2cc([N+](=O)[O-])nc2O1 [IA40],MIC,[1],4 µg/mL
same,MIC,[2],4 µg/mL
C[C@]1(COc2ccccc2-n2cc(COc3ccc(C(F)(F)F)cc3)nn2)Cn2cc([N+](=O)[O-])nc2O1 [IA41],MIC,[1],2 µg/mL
same,MIC,[2],2 µg/mL
C[C@]1(COc2ccccc2-n2cc(COc3ccccc3F)nn2)Cn2cc([N+](=O)[O-])nc2O1 [IA42],MIC,[1],2 µg/mL
same,MIC,[2],2 µg/mL
"C[C@]1(COc2ccc(-n3nnnc3-c3ccccc3)cc2)Cn2cc([N+](=O)[O-])nc2O1 [IB1, (R)-2-{4-[5-phenyl-1H-tetrazol-1-yl]phenoxymethyl}-2,3-dihydro-2-methyl-6-nitroimidazo[2,1-b]oxazole]",MIC,[1],2 µg/mL
same,MIC,[2],2 µg/mL
"C[C@]1(COc2ccc(-n3nnnc3-c3ccc(OC(F)(F)F)cc3)cc2)Cn2cc([N+](=O)[O-])nc2O1 [IB2, (R)-2-{4-[5-(4-trifluoromethoxyphenyl)-1H-tetrazol-1-yl]phenoxymethyl}-2,3-dihydro-2-methyl-6-nitroimidazo[2,1-b]oxazole]",MIC,[1],2 µg/mL
same,MIC,[2],2 µg/mL
"Cc1ccc(-c2nnnn2-c2ccc(OC[C@@]3(C)Cn4cc([N+](=O)[O-])nc4O3)cc2)cc1 [IB3, (R)-2-{4-[5-(4-methylphenyl)-1H-tetrazol-1-yl]phenoxymethyl}-2,3-dihydro-2-methyl-6-nitroimidazo[2,1-b]oxazole]",MIC,[1],4 µg/mL
same,MIC,[2],4 µg/mL
"C[C@]1(COc2ccc(-n3nnnc3-c3ccc(F)cc3)cc2)Cn2cc([N+](=O)[O-])nc2O1 [IB4, (R)-2-{4-[5-(4-fluorophenyl)-1H-tetrazol-1-yl]phenoxymethyl}-2,3-dihydro-2-methyl-6-nitroimidazo[2,1-b]oxazole]",MIC,[1],4 µg/mL
same,MIC,[2],4 µg/mL
"C[C@]1(COc2ccc(-n3nnnc3-c3ccc(C(F)(F)F)cc3)cc2)Cn2cc([N+](=O)[O-])nc2O1 [IB5, (R)-2-{4-[5-(4-trifluoromethylphenyl)-1H-tetrazol-1-yl]phenoxymethyl}-2,3-dihydro-2-methyl-6-nitroimidazo[2,1-b]oxazole]",MIC,[1],1 µg/mL
same,MIC,[2],1 µg/mL
"CCc1ccc(-c2nnnn2-c2ccc(OC[C@@]3(C)Cn4cc([N+](=O)[O-])nc4O3)cc2)cc1 [IB6, (R)-2-{4-[5-(4-ethylphenyl)-1H-tetrazol-1-yl]phenoxymethyl}-2,3-dihydro-2-methyl-6-nitroimidazo[2,1-b]oxazole]",MIC,[1],2 µg/mL
same,MIC,[2],2 µg/mL
"C[C@]1(COc2ccc(-n3nnnc3Oc3ccc(F)cc3)cc2)Cn2cc([N+](=O)[O-])nc2O1 [IB7, (R)-2-{4-[5-(4-fluorophenoxy)-1H-tetrazol-1-yl]phenoxymethyl}-2,3-dihydro-2-methyl-6-nitroimidazo[2,1-b]oxazole]",MIC,[1],2 µg/mL
same,MIC,[2],2 µg/mL
"C[C@]1(COc2ccc(-n3nnnc3Oc3ccc(C(F)(F)F)cc3)cc2)Cn2cc([N+](=O)[O-])nc2O1 [IB8, (R)-2-{4-[5-(4-trifluoromethylphenoxy)-1H-tetrazol-1-yl]phenoxymethyl}-2,3-dihydro-2-methyl-6-nitroimidazo[2,1-b]oxazole]",MIC,[1],4 µg/mL
same,MIC,[2],4 µg/mL
"Cc1ccc(Oc2nnnn2-c2ccc(OC[C@@]3(C)Cn4cc([N+](=O)[O-])nc4O3)cc2)cc1 [IB9, (R)-2-{4-[5-(4-methylphenoxy)-1H-tetrazol-1-yl]phenoxymethyl}-2,3-dihydro-2-methyl-6-nitroimidazo[2,1-b]oxazole]",MIC,[1],4 µg/mL
same,MIC,[2],4 µg/mL
"C[C@]1(COc2ccc(-n3nnnc3Oc3ccc(OC(F)(F)F)cc3)cc2)Cn2cc([N+](=O)[O-])nc2O1 [IB10, (R)-2-{4-[5-(4-trifluoromethoxyphenoxy)-1H-tetrazol-1-yl]phenoxymethyl}-2,3-dihydro-2-methyl-6-nitroimidazo[2,1-b]oxazole]",MIC,[1],1 µg/mL
same,MIC,[2],1 µg/mL
"C[C@]1(COc2ccc(-c3cc(-c4ccccc4)on3)cc2)Cn2cc([N+](=O)[O-])nc2O1 [IC1, (R)-2-{4-[5-phenylisoxazol-3-yl]phenoxymethyl}-2,3-dihydro-2-methyl-6-nitroimidazo[2,1-b]oxazole]",MIC,[1],0.12 µg/mL
same,MIC,[2],0.12 µg/mL
"CCc1ccc(-c2cc(-c3ccc(OC[C@@]4(C)Cn5cc([N+](=O)[O-])nc5O4)cc3)no2)cc1 [IC2, (R)-2-{4-[5-(4-ethylphenyl)isoxazol-3-yl]phenoxymethyl}-2,3-dihydro-2-methyl-6-nitroimidazo[2,1-b]oxazole]",MIC,[1],2 µg/mL
same,MIC,[2],2 µg/mL
"C[C@]1(COc2ccc(-c3cc(-c4ccc(F)cc4F)on3)cc2)Cn2cc([N+](=O)[O-])nc2O1 [IC3, (R)-2-{4-[5-(2,4-difluorophenyl)isoxazol-3-yl]phenoxymethyl}-2,3-dihydro-2-methyl-6-nitroimidazo[2,1-b]oxazole]",MIC,[1],0.25 µg/mL
same,MIC,[2],0.25 µg/mL
"C[C@]1(COc2ccc(-c3cc(-c4ccccc4F)on3)cc2)Cn2cc([N+](=O)[O-])nc2O1 [IC4, (R)-2-{4-[5-(2-fluorophenyl)isoxazol-3-yl]phenoxymethyl}-2,3-dihydro-2-methyl-6-nitroimidazo[2,1-b]oxazole]",MIC,[1],2 µg/mL
same,MIC,[2],2 µg/mL
"C[C@]1(COc2ccc(-c3cc(-c4ccc(C(F)(F)F)cc4)on3)cc2)Cn2cc([N+](=O)[O-])nc2O1 [IC5, (R)-2-{4-[5-(4-trifluoromethylphenyl)isoxazol-3-yl]phenoxymethyl}-2,3-dihydro-2-methyl-6-nitroimidazo[2,1-b]oxazole]",MIC,[1],1 µg/mL
same,MIC,[2],1 µg/mL
"Cc1ccc(-c2cc(-c3ccc(OC[C@@]4(C)Cn5cc([N+](=O)[O-])nc5O4)cc3)no2)cc1 [IC6, (R)-2-{4-[5-(4-methylphenyl)isoxazol-3-yl]phenoxymethyl}-2,3-dihydro-2-methyl-6-nitroimidazo[2,1-b]oxazole]",MIC,[1],1 µg/mL
same,MIC,[2],1 µg/mL
"COc1ccc(-c2cc(-c3ccc(OC[C@@]4(C)Cn5cc([N+](=O)[O-])nc5O4)cc3)no2)cc1 [IC7, (R)-2-{4-[5-(4-methoxyphenyl)isoxazol-3-yl]phenoxymethyl}-2,3-dihydro-2-methyl-6-nitroimidazo[2,1-b]oxazole]",MIC,[1],1 µg/mL
same,MIC,[2],1 µg/mL
"C[C@]1(COc2ccc(-c3cc(-c4cccc(F)c4)on3)cc2)Cn2cc([N+](=O)[O-])nc2O1 [IC8, (R)-2-{4-[5-(3-fluorophenyl)isoxazol-3-yl]phenoxymethyl}-2,3-dihydro-2-methyl-6-nitroimidazo[2,1-b]oxazole]",MIC,[1],2 µg/mL
same,MIC,[2],2 µg/mL
"C[C@]1(COc2ccc(-c3cc(-c4ccccn4)on3)cc2)Cn2cc([N+](=O)[O-])nc2O1 [IC9, (R)-2-{4-[5-(pyridin-2-yl)isoxazol-3-yl]phenoxymethyl}-2,3-dihydro-2-methyl-6-nitroimidazo[2,1-b]oxazole]",MIC,[1],2 µg/mL
same,MIC,[2],2 µg/mL
"C[C@]1(COc2ccc(-c3cc(-c4ccc(OC(F)(F)F)cc4)on3)cc2)Cn2cc([N+](=O)[O-])nc2O1 [IC10, (R)-2-{4-[5-(4-trifluoromethoxyphenyl)isoxazol-3-yl]phenoxymethyl}-2,3-dihydro-2-methyl-6-nitroimidazo[2,1-b]oxazole]",MIC,[1],0.5 µg/mL
same,MIC,[2],0.5 µg/mL
"CCCCCc1cc(-c2ccc(OC[C@@]3(C)Cn4cc([N+](=O)[O-])nc4O3)cc2)no1 [IC11, (R)-2-{4-[5-pentylisoxazol-3-yl]phenoxymethyl}-2,3-dihydro-2-methyl-6-nitroimidazo[2,1-b]oxazole]",MIC,[1],32 µg/mL
same,MIC,[2],32 µg/mL
"CCCCCCCc1cc(-c2ccc(OC[C@@]3(C)Cn4cc([N+](=O)[O-])nc4O3)cc2)no1 [IC12, (R)-2-{4-[5-heptylisoxazol-3-yl]phenoxymethyl}-2,3-dihydro-2-methyl-6-nitroimidazo[2,1-b]oxazole]",MIC,[1],2 µg/mL
same,MIC,[2],2 µg/mL
"C[C@]1(COc2ccc(-c3cc(COc4ccc(OC(F)(F)F)cc4)on3)cc2)Cn2cc([N+](=O)[O-])nc2O1 [IC13, (R)-2-{4-[5-(4-trifluoromethoxyphenoxymethyl)isoxazol-3-yl]phenoxymethyl}-2,3-dihydro-2-methyl-6-nitroimidazo[2,1-b]oxazole]",MIC,[1],0.12 µg/mL
same,MIC,[2],0.12 µg/mL
"C[C@]1(COc2ccc(-c3cc(COc4ccc(F)cc4)on3)cc2)Cn2cc([N+](=O)[O-])nc2O1 [IC14, (R)-2-{4-[5-(4-fluorophenoxymethyl)isoxazol-3-yl]phenoxymethyl}-2,3-dihydro-2-methyl-6-nitroimidazo[2,1-b]oxazole]",MIC,[1],0.12 µg/mL
same,MIC,[2],0.12 µg/mL
"C[C@]1(COc2ccc(-c3cc(COc4ccc(C(F)(F)F)cc4)on3)cc2)Cn2cc([N+](=O)[O-])nc2O1 [IC15, (R)-2-{4-[5-(4-trifluoromethylphenoxymethyl)isoxazol-3-yl]phenoxymethyl}-2,3-dihydro-2-methyl-6-nitroimidazo[2,1-b]oxazole]",MIC,[1],0.5 µg/mL
same,MIC,[2],0.5 µg/mL
"C[C@]1(COc2ccc(-c3cc(COc4ccccc4F)on3)cc2)Cn2cc([N+](=O)[O-])nc2O1 [IC16, (R)-2-{4-[5-(2-fluorophenoxymethyl)isoxazol-3-yl]phenoxymethyl}-2,3-dihydro-2-methyl-6-nitroimidazo[2,1-b]oxazole]",MIC,[1],0.5 µg/mL
same,MIC,[2],0.5 µg/mL
"Cc1ccc(OCc2cc(-c3ccc(OC[C@@]4(C)Cn5cc([N+](=O)[O-])nc5O4)cc3)no2)cc1 [IC17, (R)-2-{4-[5-(4-methylphenoxymethyl)isoxazol-3-yl]phenoxymethyl}-2,3-dihydro-2-methyl-6-nitroimidazo[2,1-b]oxazole]",MIC,[1],0.5 µg/mL
same,MIC,[2],0.5 µg/mL
"CC(C)c1ccc(OCc2cc(-c3ccc(OC[C@@]4(C)Cn5cc([N+](=O)[O-])nc5O4)cc3)no2)cc1 [IC18, (R)-2-{4-[5-(4-isopropylphenoxymethyl)isoxazol-3-yl]phenoxymethyl}-2,3-dihydro-2-methyl-6-nitroimidazo[2,1-b]oxazole]",MIC,[1],0.25 µg/mL
same,MIC,[2],0.25 µg/mL
